From publication PMC9969023 (European Journal of Nuclear Medicine and Molecular Imaging, 2023) come the findings set out here.

As to ^18F-FDG, the “SUVmax of paratracheal enlarged lymph nodes” value (patient 2, PET/MR) is 21.50. The “SUVmax of thickened esophagus” value (patient 2, PET/MR, 3.7 MBq/kg, 50 to 70 min P.I.) was determined as 28.24. The “SUVmax of lung nodule” value (patient 2, PET/MR, nodule in left lung lower lobe) is on record as 1.60. In addition, the “uptake in peritoneal nodules” value (patient 3, peritoneal metastases, result in words) is recorded as “mild increased uptake”.
